The test system of data set [1] is folate receptor-positive KB cells. The conditions noted are these: for In vitro specificity (fold): difference in IC50 between competed and non-competed group. The procedure:
Inhibition of Cellular DNA Synthesis. The compounds described herein were evaluated using an in vitro cytotoxicity assay that predicts the ability of the drug to inhibit the growth of folate receptor-positive KB cells. The compounds were comprised of folate linked to a respective chemotherapeutic drug, as prepared according to the protocols described herein. The KB cells were exposed for up to 7 h at 37° C. to the indicated concentrations of folate-drug conjugate in the absence or presence of at least a 100-fold excess of folic acid. The cells were then rinsed once with fresh culture medium and incubated in fresh culture medium for 72 hours at 37° C. Cell viability was assessed using a ^3H-thymidine incorporation assay.
In vitro test against the various cancer cell lines. Cells are heavily seeded in 24-well Falcon plates and allowed to form nearly confluent monolayers overnight. Thirty minutes prior to the addition of the test compound, spent medium is aspirated from all wells and replaced with fresh folate-deficient RPMI medium (FFRPMI). A subset of wells are designated to receive media containing 100 μM folic acid. The cells in the designated wells are used to determine the targeting specificity. […] Following one rinse with 1 mL of fresh FFRPMI containing 10% heat-inactivated fetal calf serum, each well receives 1 mL of medium containing increasing concentrations of test compound (4 wells per sample) in the presence or absence of 100 μM free folic acid as indicated. Treated cells are pulsed for 2 h at 37° C., rinsed 4 times with 0.5 mL of media, and then chased in 1 mL of fresh medium up to 70 h. Spent medium is aspirated from all wells and replaced with fresh medium containing 5 μCi/mL ^3H-thymidine. Following a further 2 h 37° C. incubation, cells are washed 3 times with 0.5 mL of PBS and then treated with 0.5 mL of ice-cold 5% trichloroacetic acid per well. After 15 min, the trichloroacetic acid is aspirated and the cell material solubilized by the addition of 0.5 mL of 0.25 N sodium hydroxide for 15 min. A 450 μL aliquot of each solubilized sample is transferred to a scintillation vial containing 3 mL of Ecolume scintillation cocktail and then counted in a liquid scintillation counter. Final tabulated results are expressed as the percentage of ^3H-thymidine incorporation relative to untreated controls.
Folate receptor expressing cells. […] EC1456 was evaluated from 0.1-100 nM.

A short description of data set [2]: Maximum tolerated dose (MTD). It counts as in vivo, female Sprague-Dawley rats. The conditions noted are these: rat, in vivo, iv, BIW, 2 wks. The source says:
Maximum tolerated dose (MTD). […] For Example, EC1456 has a MTD of at least 0.51 μmol/kg and EC0531 has a MTD of 0.33 μmol/kg, […] when administered by i.v., BIW, 2 wks in female Sprague-Dawley rats. Histopathologic changes were not observed with doses of EC1456 at or below the MTD.

Data set [3] has as its system KB tumors. Nature of the data set: KB tumor assay in nu/nu mice. The conditions noted are these: for CR (%) / Cures (%) / PR (%) / Toxicity Avg. Weight Loss / Toxicity Deaths (%): TIW, 2 weeks. The procedure: Inhibition of Tumor Growth in Mice. Four to seven week-old mice (Balb/c or nu/nu strains) were purchased from Harlan Sprague Dawley, Inc. (Indianapolis, Ind.). Normal rodent chow contains a high concentration of folic acid (6 mg/kg chow); accordingly, mice used were maintained on the folate-free diet (Harlan diet #TD00434) for 1 week before tumor implantation to achieve serum folate concentrations close to the range of normal human serum. For tumor cell inoculation, 1×10^6 M109 cells (Balb/c strain) or 1×10^6 KB cells (nu/nu strain) in 100 μL were injected in the subcutis of the dorsal medial area. Tumors were measured in two perpendicular directions every 2-3 days using a caliper, and their volumes were calculated as 0.5×L×W^2, where L=measurement of longest axis in mm and W=measurement of axis perpendicular to L in mm. […] Dosing solutions were prepared fresh each day in PBS and administered through the lateral tail vein of the mice.
General KB Tumor Assay. The anti-tumor activity of the compounds described herein, when administered intravenously (i.v.) to tumor-bearing animals, was evaluated in nu/nu mice bearing subcutaneous KB tumors. Approximately 8 days post tumor inoculation in the subcutis of the right axilla with 1×10^6 KB cells (average tumor volume at to=50-100 mm^3), in mice (5/group) were injected i.v. three times a week (TIW), for 3 weeks with […] of the drug delivery conjugate or with an equivalent dose volume of PBS (control), unless otherwise indicated. Tumor growth was measured using calipers at 2-day or 3-day intervals in each treatment group. Tumor volumes were calculated using the equation V=a×b^2/2, where “a” is the length of the tumor and “b” is the width expressed in millimeters.
Toxicity as Measured by Weight Loss. The percentage weight change of the mice was determined in mice (5 mice/group) on selected days post-tumor inoculation (PTI), and graphed.
In vivo activity against tumors.

In data set [4] the target is T1, folate receptors (FRs) (Homo sapiens, UniProt P15328).
T1 construct: FR-positive KB cells were heavily seeded into 24-well cell culture plates; endogenous in cells; host or cells: KB cells (human cervical carcinoma)
Nature of the data set: Relative affinity assay (3H-folic acid displacement on KB cells). The data set is classed as binding. The conditions noted are these: compared to folic acid (relative affinity=1), 10% serum/FDRPMI. The procedure: Relative Affinity Assay. The affinity for folate receptors (FRs) relative to folate was determined according to a previously described method (Westerhof, G. R., J. H. Schornagel, et al. (1995) Mol. Pharm. 48: 459-471) with slight modification. Briefly, FR-positive KB cells were heavily seeded into 24-well cell culture plates and allowed to adhere to the plastic for 18 h. Spent incubation media was replaced in designated wells with folate-free RPMI (FFRPMI) supplemented with 100 nM ^3H-folic acid in the absence and presence of increasing concentrations of test article or folic acid. Cells were incubated for 60 min at 37° C. and then rinsed 3 times with PBS, pH 7.4. Five hundred microliters of 1% SDS in PBS, pH 7.4, were added per well. Cell lysates were then collected and added to individual vials containing 5 mL of scintillation cocktail, and then counted for radioactivity. Negative control tubes contained only the ^3H-folic acid in FFRPMI (no competitor). Positive control tubes contained a final concentration of 1 mM folic acid, and CPMs measured in these samples (representing non-specific binding of label) were subtracted from all samples.

Data set [5] relates to cells in culture. Nature of the data set: Cytotoxicity to cells in culture. The data set is classed as cell-based. The conditions noted are these: read-out: typical IC50, cells in culture.
Data set [6] relates to KB-CR tumors. Nature of the data set: Cisplatin-resistant KB-CR tumor model. It counts as in vivo. The conditions noted are these: 3 mg/kg, twice per week (T/Th), 2 weeks.
The mark [7] stands for this setting: read-out: 50% competition, competed group (excess folic acid).
Where [8] appears, read: 1.0 μmol/kg (2 doses), only 2 doses due to toxicity.

Broadly, the MTD is the largest dose that counted as tolerated. A low value points to a narrow tolerated range.

Structures are written as SMILES. “Also recorded” adds a separate entry of the source. Where two headings read alike, the source gives them in different places.

T1 sequence (P15328 25-234): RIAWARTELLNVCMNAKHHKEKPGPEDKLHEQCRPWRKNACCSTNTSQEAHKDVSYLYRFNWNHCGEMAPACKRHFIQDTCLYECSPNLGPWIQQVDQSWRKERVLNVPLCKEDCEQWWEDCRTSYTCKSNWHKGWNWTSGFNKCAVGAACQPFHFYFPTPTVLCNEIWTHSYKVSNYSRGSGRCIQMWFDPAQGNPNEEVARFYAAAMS

On to `N=c1[nH]c(N)nc2ncc(CNc3ccc(C(=O)N[C@@H](CCC(=O)NNC(=O)OCCSSC[C@H](NC(=O)[C@H](CCC(=O)NC[C@H](O)[C@@H](O)[C@H](O)[C@H](O)CO)NC(=O)[C@H](CCC(=O)O)NC(=O)[C@H](CCC(=O)NC[C@H](O)[C@@H](O)[C@H](O)[C@H](O)CO)NC(=O)[C@H](CCC(=O)O)NC(=O)[C@H](CCC(=O)NC[C@H](O)[C@@H](O)[C@H](O)[C@H](O)CO)NC(=O)CC[C@H](NC(=O)c4ccc(NCc5cnc6nc(N)[nH]c(=O)c6n5)cc4)C(=O)O)C(=O)O)C(=O)O)cc3)nc12` [EC0531, reference compound], for which the “In vitro specificity (fold)” value in data set [1] is listed as 237 fold. Also, the IC50 was 355 nM in data set [1] (setting [7]) and 1.5 nM in data set [1] (read-out: In vitro IC50). In addition, in data set [2], the MTD at 2 weeks was 0.33 µmol/kg. The In vivo activity result in data set [3] is on record as “Complete”.
As for `CCCC(=O)OCN(C(=O)[C@@H](NC(=O)[C@H]1CCCCN1C)C(C)CC)[C@H](C[C@@H](OC(C)=O)c1nc(C(=O)N[C@@H](Cc2ccc(O)cc2)C[C@H](C)C(=O)NNC(=O)OCCSSC[C@@H](NC(=O)[C@@H](CC(=O)O)NC(=O)[C@@H](CC(=O)O)NC(=O)[C@@H](CCCNC(=N)N)NC(=O)[C@@H](CC(=O)O)NC(=O)CC[C@@H](NC(=O)c2ccc(NCc3cnc4nc(N)[nH]c(=O)c4n3)cc2)C(=O)O)C(=O)O)cs1)C(C)C` (some centres unmarked) [EC1299], the “Relative Affinity” value in data set [4] is 0.29. Moreover, the “In vitro specificity (fold)” value in data set [1] amounted to 778 fold. The IC50 is 700 nM in data set [1] (setting [7]) and 0.9 nM in data set [1] (read-out: In vitro IC50). Besides, the In vivo activity entry in data set [3] is “Complete”.
`CCCC(=O)OCN(C(=O)[C@@H](NC(=O)[C@H]1CCCCN1C)C(C)CC)[C@H](C[C@@H](OC(C)=O)c1nc(C(=O)N[C@@H](Cc2ccc(O)cc2)C[C@H](C)C(=O)NNC(=O)OCCSSC(C)(C)[C@@H](NC(=O)[C@@H](CC(=O)O)NC(=O)[C@@H](CC(=O)O)NC(=O)[C@@H](CCCNC(=N)N)NC(=O)[C@@H](CC(=O)O)NC(=O)CC[C@@H](NC(=O)c2ccc(NCc3cnc4nc(N)[nH]c(=O)c4n3)cc2)C(=O)O)C(=O)O)cs1)C(C)C` (some centres unmarked) [EC1393]: in data set [4], the “Relative Affinity” value worked out at 0.25. For the same molecule, the “In vitro specificity (fold)” value in data set [1] was found to be 300 fold. In addition, the IC50 turned out to be 600 nM in data set [1] (setting [7]) and 2.2 nM in data set [1] (read-out: In vitro IC50).
As to `CCCC(=O)OCN(C(=O)[C@@H](NC(=O)[C@H]1CCCCN1C)C(C)CC)[C@H](C[C@@H](OC(C)=O)c1nc(C(=O)N[C@@H](Cc2ccc(O)cc2)C[C@H](C)C(=O)NNC(=O)OCCSSC[C@@H](NC(=O)[C@H](CC(=O)O)NC(=O)[C@H](CC(=O)O)NC(=O)[C@H](CCCNC(=N)N)NC(=O)[C@H](CC(=O)O)NC(=O)CC[C@H](NC(=O)c2ccc(NCc3cnc4nc(N)[nH]c(=O)c4n3)cc2)C(=O)O)C(=O)O)cs1)C(C)C` (some centres unmarked) [EC1548], the “Relative Affinity” value in data set [4] came to 0.23. Moreover, in data set [1], the “In vitro specificity (fold)” value came to 78 fold. The IC50 was determined as 350 nM in data set [1] (setting [7]) and 4.4 nM in data set [1] (read-out: In vitro IC50). Further, the In vivo activity result in data set [3] is recorded as “Complete”.
Turning to `CCCC(=O)OCN(C(=O)[C@@H](NC(=O)[C@H]1CCCCN1C)C(C)CC)C(C[C@@H](OC(C)=O)c1nc(C(=O)N[C@@H](Cc2ccc(O)cc2)C[C@H](C)C(=O)NNC(=O)OCCSSC[C@@H](NC(=O)[C@@H](CC(=O)O)NC(=O)[C@H](CC(=O)O)NC(=O)[C@H](CCCNC(=N)N)NC(=O)[C@H](CC(=O)O)NC(=O)CC[C@H](NC(=O)c2ccc(NCc3cnc4nc(N)[nH]c(=O)c4n3)cc2)C(=O)O)C(=O)O)cs1)C(C)C` (some centres unmarked) [EC1549], the “Relative Affinity” value in data set [4] is recorded as 0.90. Besides, the “In vitro specificity (fold)” value in data set [1] stood at 78 fold. Besides, the IC50 came out at 350 nM in data set [1] (setting [7]) and 4.5 nM in data set [1] (read-out: In vitro IC50). The In vivo activity entry in data set [3] was “Complete”.
In the case of `CCCCOCN(C(=O)[C@@H](NC(=O)[C@H]1CCCCN1C)C(C)CC)[C@H](C[C@@H](OC(C)=O)c1nc(C(=O)N[C@@H](Cc2ccc(O)cc2)C[C@H](C)C(=O)NNC(=O)OCCSSC[C@@H](NC(=O)[C@H](CCC(=O)NC[C@H](O)[C@@H](O)[C@H](O)[C@H](O)CO)NC(=O)[C@@H](CCC(=O)O)NC(=O)[C@H](CCC(=O)NC[C@H](O)[C@@H](O)[C@H](O)[C@H](O)CO)NC(=O)[C@@H](CCC(=O)O)NC(=O)[C@H](CCC(=O)NC[C@H](O)[C@@H](O)[C@H](O)[C@H](O)CO)NC(=O)CC[C@@H](NC(=O)c2ccc(NCc3cnc4nc(N)[nH]c(=O)c4n3)cc2)C(=O)O)C(=O)O)cs1)C(C)C` (some centres unmarked) [EC1663], the whole animal toxicity result in data set [3] (0.5 μmol/kg TIW, 2 wk, compared to PBS control) is given as “did not exhibit significant host animal toxicity; also recorded: does not show any evidence of whole animal toxicity”. Also, the “partial responses (test animals)” value in data set [3] (intravenously 0.5 μmol/kg TIW, 2 wk) is listed as 4/4.
`CCCC(=O)OCN(C(=O)[C@@H](NC(=O)[C@H]1CCCCN1C)C(C)CC)[C@H](C[C@@H](OC(C)=O)c1nc(C(=O)N[C@@H](Cc2ccc(O)cc2)C[C@H](C)C(=O)NN)cs1)C(C)C` (some centres unmarked) [TubBH, tubulysin B hydrazide]: the IC50 in data set [5] was ~1 nM. Also, in data set [3] (0.5 μmol/kg), the “CR (%)” value amounted to 0%, the “Cures (%)” value was determined as 0%, the “PR (%)” value is on record as 0% and the “Toxicity Avg. Weight Loss” value is listed as <5.5%. In addition, in data set [3] (0.5 μmol/kg), the “Toxicity Deaths (%)” value was 0%. In data set [3] (0.75 μmol/kg), the “CR (%)” value is given as 0%, the “Cures (%)” value was found to be 0%, the “PR (%)” value is on record as 0% and the “Toxicity Avg. Weight Loss” value was >10%. Moreover, the “Toxicity Deaths (%)” value in data set [3] (0.75 μmol/kg) is 20%. Moreover, in data set [3] (setting [8]), the “CR (%)” value was 0%, the “Cures (%)” value came out at 0%, the “PR (%)” value was 0% and the “Toxicity Avg. Weight Loss” value is >15%. The “Toxicity Deaths (%)” value in data set [3] (setting [8]) was 20%. In addition, the “toxicity in relation to anti-tumor effect in mice” value in data set [3] (mouse, in vivo) was “dose-limiting toxicities in mice at levels that did not produce measurable anti-tumor effect”.
With `N.N.[Cl][Pt][Cl]` [cisplatin, reference compound], in data set [6], the “partial responses (PRs)” value was “no PRs”.

These data come from patent US20140107316A1, “DRUG DELIVERY CONJUGATES CONTAINING UNNATURAL AMINO ACIDS AND METHODS FOR USING” (priority 2012, published 2014).
